Type in all cases: functional
Test [1] relates to Onchocerca lienalis. Description: MMV: Percent motility assay at a compound concentration of 1.9e-7 M. Activity score legend: 3: Active, 2: Moderately active; 1: Inactive, 0: Toxic. As to conditions: at 0.19 µM.
Test [2] relates to Onchocerca lienalis. In words: MMV: Percent motility assay at a compound concentration of 1.25e-5 M. Activity score legend: 3: Active, 2: Moderately active; 1: Inactive, 0: Toxic. The settings on record: at 12.5 µM.
Test [3] relates to Onchocerca lienalis. Description: MMV: Percent motility assay at a compound concentration of 3.1e-6 M. Activity score legend: 3: Active, 2: Moderately active; 1: Inactive, 0: Toxic. As to conditions: at 3.1 µM.
Test [4] has as its system Onchocerca lienalis. In words: MMV: Percent motility assay at a compound concentration of 7.8e-7 M. Activity score legend: 3: Active, 2: Moderately active; 1: Inactive, 0: Toxic. The settings on record: at 0.78 µM.

This note sets out measurements from ChEMBL document CHEMBL3137381, “MMV Box Onchocerca lienalis screening set”.

As for `COc1ccc(C2c3ccc4ccccc4c3Oc3ncn(CCCN(C)C)c(=N)c32)cc1` (stereo not given), the Motility in the test on Onchocerca lienalis [1], with Onchocerca lienalis [2], in the test with Onchocerca lienalis [3] and in the test on Onchocerca lienalis [4] was 100% in each case.

For `Nc1nc(Nc2cccc(F)c2)nc2ccccc12`, the Motility with Onchocerca lienalis [1], with Onchocerca lienalis [2], in the test on Onchocerca lienalis [3] and in the test on Onchocerca lienalis [4] was 100% throughout.

Consider `COc1ccc(/C=C2/SC(=Nc3ccccc3)NC2=O)cc1`, for which the Motility with Onchocerca lienalis [1], with Onchocerca lienalis [2], with Onchocerca lienalis [3] and in the test on Onchocerca lienalis [4] was 100% in each case.

On to `c1ccc(/C2=N/c3ccccc3/N=C(/c3ccccc3)c3ccccc32)cc1`, for which the Motility in the test with Onchocerca lienalis [1], in the test with Onchocerca lienalis [2], in the test on Onchocerca lienalis [3] and in the test on Onchocerca lienalis [4] was 100% throughout.

For the compound `O=C(NC1CCN(Cc2ccccc2)CC1)c1cc2nc(-c3ccc(Cl)s3)cc(C(F)(F)F)n2n1`, the Motility in the test with Onchocerca lienalis [1], with Onchocerca lienalis [2], in the test on Onchocerca lienalis [3] and in the test on Onchocerca lienalis [4] was 100% each time.

Consider `Cc1sc(NC(=O)c2ccccc2)c(C(c2cccs2)N2CCN(c3ccccc3)CC2)c1C` (stereo not given), for which the Motility in the test with Onchocerca lienalis [1], in the test with Onchocerca lienalis [2], in the test with Onchocerca lienalis [3] and with Onchocerca lienalis [4] was 100% in each case.

In the case of `CCOC(=O)c1c(C)n(-c2ccccc2)c2ccc(OC(=O)c3cc(OC)c(OC)c(OC)c3)cc12`, the Motility in the test on Onchocerca lienalis [1], with Onchocerca lienalis [2], in the test on Onchocerca lienalis [3] and in the test with Onchocerca lienalis [4] was 100% throughout.

Consider `N#Cc1nc(Cc2cccc3ccccc23)oc1N1CCN(C(c2ccccc2)c2ccccc2)CC1`, for which the Motility in the test with Onchocerca lienalis [1], in the test with Onchocerca lienalis [2], with Onchocerca lienalis [3] and in the test with Onchocerca lienalis [4] was 100% each time.

Regarding `COc1ccc(C2c3ccc4ccccc4c3Oc3ncn(CCCn4ccnc4)c(=N)c32)cc1OC` (stereo not given), the Motility in the test with Onchocerca lienalis [1], in the test on Onchocerca lienalis [2], in the test on Onchocerca lienalis [3] and in the test on Onchocerca lienalis [4] was 100% each time.

For `CN(N=O)C1=C(NC2CCCCC2)C(=O)c2ccccc2C1=O`, the Motility in the test on Onchocerca lienalis [1], in the test on Onchocerca lienalis [2], with Onchocerca lienalis [3] and in the test with Onchocerca lienalis [4] was 100% throughout.

As for `COc1cccc(Nc2nc(N)c3ccccc3n2)c1.Cl`, the Motility in the test on Onchocerca lienalis [1], in the test on Onchocerca lienalis [2], in the test with Onchocerca lienalis [3] and with Onchocerca lienalis [4] was 100% in each case.

`Cc1ccc(C(=O)c2oc3ccc4c(C)cc(=O)oc4c3c2C)cc1`: the Motility in the test with Onchocerca lienalis [1], with Onchocerca lienalis [2], in the test on Onchocerca lienalis [3] and in the test on Onchocerca lienalis [4] was 100% throughout.

Turning to `CCCCCCc1cc2cc(-c3csc(C=Cc4ccccc4)n3)c(=O)oc2cc1O`, the Motility in the test on Onchocerca lienalis [1], in the test on Onchocerca lienalis [2], in the test on Onchocerca lienalis [3] and in the test with Onchocerca lienalis [4] was 100% each time.

With `CC(Oc1ccc(NC(=O)c2cccs2)cc1)C(=O)c1ccc(Cl)cc1` (stereo not given), the Motility in the test with Onchocerca lienalis [1], in the test on Onchocerca lienalis [2], in the test with Onchocerca lienalis [3] and with Onchocerca lienalis [4] was 100% in each case.

For `COc1ccc(CNC(=O)c2cc3c(=O)n4ccccc4nc3n(CCc3ccccc3)c2=N)cc1`, the Motility in the test on Onchocerca lienalis [1], in the test with Onchocerca lienalis [2], with Onchocerca lienalis [3] and in the test with Onchocerca lienalis [4] was 100% in each case.

With `Brc1ccc(Nc2nc3ccccc3nc2Nc2ccc(Br)cc2)cc1`, the Motility in the test with Onchocerca lienalis [1], in the test on Onchocerca lienalis [2], in the test with Onchocerca lienalis [3] and in the test with Onchocerca lienalis [4] was 100% each time.

On to `O=C(NC1CCN(Cc2ccccc2)CC1)c1cc(C(=O)NC2CCN(Cc3ccccc3)CC2)cc(C(=O)NC2CCN(Cc3ccccc3)CC2)c1`, for which the Motility in the test with Onchocerca lienalis [1], with Onchocerca lienalis [2], in the test with Onchocerca lienalis [3] and with Onchocerca lienalis [4] was 100% each time.

As to `COc1ccc(-c2cn3c(C(=O)Nc4ccccc4Cl)c(-c4ccccc4)c4c3n2CCCC4)cc1`, the Motility in the test on Onchocerca lienalis [1] worked out at 100%; in the test on Onchocerca lienalis [2], 66.66%; in the test with Onchocerca lienalis [3], 100%; in the test with Onchocerca lienalis [4], 100%.

With `Cl.Cn1c(=O)n(C)c2cc(CNCCNc3ccnc4cc(Cl)ccc34)ccc21`, the Motility in the test with Onchocerca lienalis [1], in the test with Onchocerca lienalis [2], in the test on Onchocerca lienalis [3] and in the test with Onchocerca lienalis [4] was 100% each time.

`Cc1cc(Nc2ccc(OCc3ccccc3)cc2)nc2cc(O)ccc12`: the Motility is 100% with Onchocerca lienalis [1], 66.66% with Onchocerca lienalis [2], 100% in the test with Onchocerca lienalis [3] and 100% with Onchocerca lienalis [4].

As to `CCN(CC)CCNc1ccnc2cc3ccccc3cc12.O=P(O)(O)O`, the Motility with Onchocerca lienalis [1], with Onchocerca lienalis [2], in the test on Onchocerca lienalis [3] and in the test with Onchocerca lienalis [4] was 100% in each case.

Turning to `CCOc1ccc2nc(C)cc(Nc3ccc(N(C)C)cc3)c2c1.Cl`, the Motility in the test with Onchocerca lienalis [1], in the test with Onchocerca lienalis [2], in the test on Onchocerca lienalis [3] and in the test on Onchocerca lienalis [4] was 100% each time.

As to `COc1ccc(C=C2SC(Nc3ccc(F)cc3)=NC2=O)c(OC)c1`, the Motility in the test on Onchocerca lienalis [1], with Onchocerca lienalis [2], with Onchocerca lienalis [3] and in the test with Onchocerca lienalis [4] was 100% throughout.

On to `O=C(Nc1ccc(-c2nc3cc(NC(=O)c4ccc(Cl)cc4)ccc3[nH]2)cc1)c1ccc(Cl)cc1`, for which the Motility in the test with Onchocerca lienalis [1], in the test on Onchocerca lienalis [2], in the test on Onchocerca lienalis [3] and in the test with Onchocerca lienalis [4] was 100% throughout.

Turning to `CCOC(=O)c1cnc2ccc(OC)cc2c1Nc1ccc(N2CCN(C)CC2)cc1`, the Motility in the test on Onchocerca lienalis [1], with Onchocerca lienalis [2], with Onchocerca lienalis [3] and with Onchocerca lienalis [4] was 100% throughout.

Regarding `COc1ccccc1C(=O)ON=C(N)Cc1cccc2ccccc12`, the Motility with Onchocerca lienalis [1], in the test on Onchocerca lienalis [2], in the test on Onchocerca lienalis [3] and in the test with Onchocerca lienalis [4] was 100% throughout.

For the compound `CCOc1cc2c(cc1OCC)C(c1cc(Cl)ccc1O)NCC2` (stereo not given), the Motility with Onchocerca lienalis [1], in the test on Onchocerca lienalis [2], in the test on Onchocerca lienalis [3] and with Onchocerca lienalis [4] was 100% each time.

As to `Cc1ccc(-c2nc3ccccc3o2)cc1NCc1cc(Cc2ccccc2)ccc1O`, the Motility in the test on Onchocerca lienalis [1], with Onchocerca lienalis [2], with Onchocerca lienalis [3] and in the test with Onchocerca lienalis [4] was 100% each time.

With `O=C(Cc1ccccc1)NC(c1ccc(Cl)cc1)c1c(O)ccc2ccccc12` (stereo not given), the Motility in the test on Onchocerca lienalis [1], in the test with Onchocerca lienalis [2], with Onchocerca lienalis [3] and in the test on Onchocerca lienalis [4] was 100% in each case.

With `c1ccc(CNc2nc(Nc3ccccc3)nc3ccccc23)cc1`, the Motility was 100% with Onchocerca lienalis [1], 0% in the test with Onchocerca lienalis [2], 100% in the test on Onchocerca lienalis [3] and 100% in the test on Onchocerca lienalis [4].

Turning to `Cc1cccc(N2C(=O)C3C(C2=O)C2(c4ccccc4)C(=O)C3(c3ccccc3)C(c3ccc4c(c3)OCO4)=C2c2ccc3c(c2)OCO3)c1` (stereo not given), the Motility with Onchocerca lienalis [1], in the test on Onchocerca lienalis [2], in the test with Onchocerca lienalis [3] and with Onchocerca lienalis [4] was 100% in each case.

`CCOc1ccc2nc(C)cc(Nc3ccc(Br)cc3)c2c1`: the Motility in the test with Onchocerca lienalis [1], in the test with Onchocerca lienalis [2], in the test on Onchocerca lienalis [3] and in the test on Onchocerca lienalis [4] was 100% throughout.

Turning to `COc1cc2c3cc1Oc1c(OC)c(OC)cc4c1C(Cc1ccc(O)c(c1)Oc1ccc(cc1)CC3N(C)CC2)N(C)CC4.Cl` (stereo not given), the Motility in the test with Onchocerca lienalis [1], with Onchocerca lienalis [2], in the test on Onchocerca lienalis [3] and in the test with Onchocerca lienalis [4] was 100% each time.

Take `CCCCCCc1cc2cc(-c3nc4ccccc4[nH]3)c(=Nc3ccccc3C)oc2cc1O`: the Motility in the test with Onchocerca lienalis [1], with Onchocerca lienalis [2], in the test with Onchocerca lienalis [3] and in the test on Onchocerca lienalis [4] was 100% throughout.

Regarding `COc1ccc2sc(N(Cc3cccnc3)C(=O)c3ccc(C#N)cc3)nc2c1`, the Motility in the test on Onchocerca lienalis [1], in the test with Onchocerca lienalis [2], in the test with Onchocerca lienalis [3] and in the test on Onchocerca lienalis [4] was 100% each time.

As for `CC1CC2=C(CC1CNCCCN(C)C)C(C)(C)CCC2` (stereo not given), the Motility in the test with Onchocerca lienalis [1], in the test with Onchocerca lienalis [2], in the test on Onchocerca lienalis [3] and in the test with Onchocerca lienalis [4] was 100% each time.

Regarding `CN(C)c1ccc(N=Cc2ccc(N3CCOCC3)cc2)cc1`, the Motility with Onchocerca lienalis [1] amounted to 100%; in the test with Onchocerca lienalis [2], 93.33%; with Onchocerca lienalis [3], 100%; in the test with Onchocerca lienalis [4], 100%.

Consider `CCOC(=O)c1cnc2ccc(OC)cc2c1NCc1ccccc1`, for which the Motility in the test on Onchocerca lienalis [1], in the test on Onchocerca lienalis [2], in the test with Onchocerca lienalis [3] and in the test on Onchocerca lienalis [4] was 100% in each case.

`CCOC(=O)C1=CN(C)C=C(C(=O)OCC)C1c1cc(Br)c(OCC)c(OC)c1`: the Motility in the test on Onchocerca lienalis [1], in the test with Onchocerca lienalis [2], in the test on Onchocerca lienalis [3] and with Onchocerca lienalis [4] was 100% throughout.

`CCCCc1c(CCC)c(=N)c2ccccc2n1C.I`: the Motility in the test on Onchocerca lienalis [1], in the test on Onchocerca lienalis [2], in the test on Onchocerca lienalis [3] and with Onchocerca lienalis [4] was 100% in each case.
